According to patent US20060088899A1, “Combination chemotherapy with chlorotoxin” (priority 2002, published 2006):
Like-named read-outs stand apart in the source and are kept apart here. Ends that are not written are not given here. * marks the point of attachment. Biotin = O=C1N[C@H]2[C@H](CS[C@H]2CCCCC(=O)*)N1

Legend:
[1] = tested on: U251; experiment: Chemotherapeutic agent cytotoxicity, CCK-8 assay; type: cell-based; details: Homo sapiens, U-251, 120 h, two to five days treatment
Method: (§1) A tissue culture method was optimized to test the effects of various chemotherapeutic agents on multiple cancer cell lines (see Table 1). Cells were plated on 96-well microtiter tissue culture plates at a density of approximately 1000-2000 cells per well, depending on the specific cell line. Cells were allowed to adhere twenty-four hours in a 37° C., humidified cell culture incubator supplied with five percent carbon dioxide. In order to achieve a dose-response curve for each drug in each cell line, cells were treated with decreasing concentrations of a specific cytotoxic compound for two to five days. Following treatment, the cytotoxic effect of the drug was quantified using the Cell Counting Kit-8 (CCK-8) (Dojindo Inc.) according to the manufacturer's instructions. In brief, following the treatment period with the cytotoxic drug, cells were incubated with CCK-8 reagent and incubated at 37° C. for one to four hours, depending on the specific cell type. After incubation, plates were read on a microplate reader at a wavelength of 490 nm. The IC50 of each drug was calculated from a X-Y scatter plot of the negative log concentration of drug versus mean optical density (Table 2).

[2] = tested on: SKMEL31; experiment: Chemotherapeutic agent cytotoxicity, CCK-8 assay; type: cell-based; details: Homo sapiens, 120 h, two to five days treatment
Method: as §1

[3] = tested on: D54-MG; experiment: Chemotherapeutic agent cytotoxicity, CCK-8 assay; type: cell-based, Human; details: two to five days treatment
Method: as §1

[4] = tested on: SKMEL28; experiment: Chemotherapeutic agent cytotoxicity, CCK-8 assay; type: cell-based, Human; details: two to five days treatment
Method: as §1

[5] = tested on: PC3 human prostate cancer cells; type: binding
Source text: In order to compare binding of the short scorpion toxins, the regions homologous to peptide 21 of small toxin and probable toxin LQH-8/6 were synthesized and biotinylated for analysis in the chlorotoxin binding assay (see Table 8 for amino acid sequences of the peptides).

[6] = tested on: crayfish; experiment: Crayfish paralysis assay; type: in vivo; details: 10-mer peptides
[7] = tested on: D54MG Glioblastoma cells; details: for ^3H-Thymidine uptake ± SD (CPM): 24 hours incubation
Method: The purpose of this experiment was to determine if the proliferation D54MG Glioblastoma cells, as measured by ^3H-thymidine uptake, is effected by Peptide 21, a segment of the full chlorotoxin sequence. The sequence of peptide 21 and its relation to chlorotoxin is shown in the sequence below:
D54MG cells were plated in a 24 well plate at 100,000 cells/ml/well using five rows of four wells for each concentration. The cells were allowed to adhere in normal media for twenty-four hours at 37° C. and 5% carbon dioxide. TM-701 was diluted to a […] stock solution and added to each row at the concentrations of 0, 20, 80, 160 and 320 nM.
The cells and peptide 21 were allowed to incubate for 24 hours at 37° C. and 5% carbon dioxide. After twenty-four hours, the cells were rinsed two times with warm PBS. Normal media was added back to the cells at 1 ml/well. One μCi of ^3H-thymidine was added to each well (1 μl of 1 mCi/ml ^3H-thymidine to each well). The plate was incubated for two hours at 37° C. The media and thymidine were removed and the wells were rinsed with ice-cold phosphate-buffered saline three times. To each well was added 1 ml of 0.3 N NaOH. The plate was incubated in the 37° C. incubator for thirty minutes. Each well of 0.3 N NaOH was pipetted up and down three to four times and removed from the plate and the solution was placed in scintillation vials for counting. Scintillation fluid at four times the amount of sample was added to the vials (4 ml). Each vial was counted on the scintillation counter for one minute.

[8] = tested on: U251 and PC3 cells; details: alanine-substituted 9-mers versus native 9-mer
[9] = tested on: PC-3; experiment: Chemotherapeutic agent cytotoxicity, CCK-8 assay; type: cell-based; details: Homo sapiens, 120 h, two to five days treatment
Method: as §1

[10] = tested on: U251 glioma flank tumors; experiment: Temodar plus chlorotoxin in glioma flank tumor model; type: in vivo, Nude mice; details: i.p., temodar 13.2 mg/kg, chlorotoxin 0.080 mg/kg
Method: The purpose of this study was to determine whether hydroxyurea or temodar combined with chlorotoxin were sufficient to inhibit tumor growth as indicated from in vitro studies with glioma cell lines. […] Combination treatment with chlorotoxin with hydroxyurea or temodar in mice with glioma flank tumors was compared to the treatment group of hydroxyurea or temodar alone and saline alone. Hydroxyurea and temodar dosage was based on the lowest dosage (10 mg/kg body weight) used in previous studies to determine clearance from the body in the treatment of sickle cell disease paradigm in nude mice (Iyamu et al. (2001) Chemotherapy 47, 270-278). […]
Mice with established flank tumors were each treated with 0.100 ml injection (i.p) of sterilized solutions consisting of either of saline, saline and hydroxyurea or temodar (13.2 mg/kg body weight), or saline, hydroxyurea or temodar (13.2 mg/kg) and chlorotoxin (0.080 mg/kg body weight). Tumor volume was calculated based on the measurements with the same set of calipers on the indicated days by determining the length×width×height of the tumor of non-anesthetized mice. […] Statistical significance was determined according to a one-way ANOVA test.

[11] = Homo sapiens, D54MG, 120 h, read-out: IC50
[12] = Homo sapiens, SK-MEL-28, 120 h, read-out: IC50
[13] = PC3 cells, biotinylated peptides

Compound `COc1cccc2c1C(=O)c1c(O)c3c(c(O)c1C2=O)C[C@@](O)(C(=O)CO)C[C@@H]3O[C@H]1C[C@H](N)[C@H](O)[C@H](C)O1` [Doxorubicin, hydroxyl daunorubicin] has an IC50 [1] of 0.03 µg/mL, an IC50 [2] of 0.035 µg/mL and an IC50 [3, 11] of 0.06 µg/mL. It also gave an IC50 [4, 12] of 0.04 µg/mL.
With “negative peptide (GKCYGPQCLC; Chlorotoxin; listed as Leiurus quinquestriatus)” the binding [5, 13] was 110 % of background levels.
For Biotin-TTDHQMARKS [peptide 21], the paralysis of crayfish [6] was “effective”, the binding [5] was 232.50 % of background levels and the “uptake of ^3H-thymidine, dose dependence” value ([7]; 0 to 320 nM) was “decreases in a does-dependent manner”. For the same compound, the “^3H-Thymidine uptake ± SD (CPM)” value ([7]; 20 nM) was 7795 ± 634 CPM, the “^3H-Thymidine uptake ± SD (CPM)” value ([7]; 80 nM) was 7412 ± 630 CPM and the “^3H-Thymidine uptake ± SD (CPM)” value ([7]; 160 nM) was 6983 ± 329 CPM. The “^3H-Thymidine uptake ± SD (CPM)” value ([7]; 320 nM) was 5782 ± 886 CPM.
Compound `N.N.[Cl][Pt][Cl]` [Cisplatin, cis-diamminedichloroplatinum] has an IC50 [3] of 10 µg/mL and an IC50 [4] of 8 µg/mL.
For “TTDQQMTKK [Peptide 21LQ, biotinylated region of probable toxin LQH-8/6 homologous to peptide 21]”, the binding [5, 13] was 242.32 % of background levels.
In the case of “TTDPQMSKK [Peptide 21ST, biotinylated region of small toxin homologous to peptide 21]”, the binding [5, 13] is reported as 225.26 % of background levels.
Biotin-TDHAMARKS [Peptide 21a-A4] was tested, and the “binding of the peptide to cells” value [8] was “may be equal to or greater than chlorotoxin itself”.
In the case of `CC(=O)O[C@H]1C(=O)[C@@]2(C)[C@H]([C@H](OC(=O)c3ccccc3)[C@]3(O)C[C@H](OC(=O)[C@H](O)[C@@H](NC(=O)c4ccccc4)c4ccccc4)C(C)=C1C3(C)C)[C@]1(OC(C)=O)CO[C@@H]1C[C@@H]2O` [Paclitaxel, paclitaxel], the IC50 [1] is reported as 0.008 µM, the IC50 [2] is reported as 0.025 µM and the IC50 [3, 11] is reported as 0.0105 µM.
`NC(=O)NO` [Hydroxyurea, hyroxycarbamide] showed an IC50 [9] of 35000 µM.
`O=c1[nH]cc(F)c(=O)[nH]1` [5-Fluorouracil, fluorouracil] showed an IC50 [3, 11] of 1.5 µg/mL.
For `Cn1nnc2c(C(N)=O)ncn2c1=O` [Temodar, temozomide], the IC50 [1] was 150 µM, the IC50 [2] was 150 µM and the “growth of the xenografted tumor (percent change of tumor volume)” value [10] was “little effect”. It also gave an IC50 [3, 11] of 120 µM and an IC50 [4, 12] of 30 µM.
